Structure (SMILES) | melting point [°C]
CN(C(=O)C(Cl)(Cl)Cl)c1nc(C(Cl)(Cl)Cl)ns1 | 223
CC(C)(C)c1ccc(-c2nc(N)sc2-c2ccncc2)cc1 | 254 to 257
Cc1c(C)c2c(c(C)c1NS(=O)(=O)CCCC(F)(F)F)C(c1ccc(C(C)C)cc1)CO2 (stereo not given) | 149 to 150
CS(=O)(=O)NC1CCCOc2ccc([N+](=O)[O-])cc21 (stereo not given) | 96 to 98
Cn1ncc(/C=C/C(=O)Nc2ccc(OCc3nnco3)cc2)c1-c1ccc(F)cc1 | 154 to 155
CCC(C)(C)C(=O)Oc1cccc2ccc(OCCOc3ccc(C(=O)C(=O)O)cc3)cc12 | 167 to 168
COc1cc(C=CC=C2SC(=O)NC2=O)cc(OC)c1OCc1ccccc1 | 217 to 218
c1cncc(-c2nncs2)c1 | 78 to 79
CC(=O)Cc1ccc(C#CC(C)(C)O)cc1 | 67 to 69
O=CC(=C1NCCCS1)[N+](=O)[O-] | 171 to 172
Cn1ncc(C(=O)c2ccc(S(C)(=O)=O)c(C3=NC(C)(C)CO3)c2Cl)c1O | 132 to 135
O=C(COc1ccc(Cl)c(Cl)c1)Nc1cscc1C(=O)O | 258 to 264
CCOC(=O)c1ncn(-c2nc(C)cs2)c1N | 152 to 155
Cc1csc2ccc3[nH]c4c(c3c12)CN(CCCN(C)C)CC4 | 184
COc1ccc2c(c1)C(C(=O)N(Cc1ccc(S(C)(=O)=O)cc1)c1ccc(C(C)C)cc1)CCC2 (stereo not given) | 131 to 132
Cn1cc(-c2cc(-c3cnc4[nH]cc(C(F)(F)F)c4c3)ccn2)n(-c2ccc(C(C)(C)C#N)cc2)c1=O | 159
CC(C)(C)OC(=O)Nc1cc(C(=O)NN)ccn1 | 289 to 290
O=C(O)COc1ccc(C(=O)Nc2cccc(Cl)c2Cl)cc1 | 153 to 157
COc1ccc(CNc2cc(OC)c(Cl)cc2OC)cc1 | 53 to 63
O=C(c1cccnc1)c1cc(-c2ccc(Cl)cc2)c(N2CCOCC2)s1 | 114
c1ccc(CCN2CCC(c3n[nH]c4c3CCc3ccccc3-4)CC2)cc1 | 151 to 152
Cc1c(O)c(=O)ccn1C(C)C | 239 to 242
CC(C)(C)c1cc(-c2csc(CN3CCSCC3)n2)cc(C(C)(C)C)c1O | 153 to 155
CC(C)(C)OC(=O)N1CCN(C(=O)CCc2cccnc2)CC1 | 125 to 126

Structure (SMILES) | melting point [°C]
Cc1nc2cccc3n(CCCCCNS(=O)(=O)C(F)(F)F)c(=O)c1n23 | 149 to 150
CC(C)(C)c1cc(CN2CC(N(O)C(N)=O)C2)cc(C(C)(C)C)c1O | 90 to 95
Cc1cc(-c2nnc3c4ccccc4c(OCc4cscn4)nn23)no1 | 227 to 229
COC(OC)c1cc(O)cc(Cl)c1 | 153
N=C(N)Nc1nc(CCCCNc2c(NCCSCc3csc(NC(=N)N)n3)c(=O)c2=O)cs1 | 208 to 210
O=C(O)C(=O)CC(=O)c1cccn1Cc1ccc(Cl)cc1 | 182 to 184
FC(F)(F)c1ccc2c(c1)C(Cl)Cc1c(Cl)cccc1S2 (stereo not given) | 88 to 90
CCOc1ccc2c(c1)C(C)(c1cc(C(=O)N3CC4CCN(C)C4C3)ccc1Cl)C(=O)N2S(=O)(=O)c1ccc(C(=O)NC(C)(C)C)cc1OC (stereo not given) | 130
COC(=O)C1CCC2C3CCC4CC(OS(=O)(=O)c5ccc(C)cc5)CCC4(C)C3C(=O)CC12C (stereo not given) | 158 to 160
Cn1nnnc1SCCCSc1ncccc1O | 87.5 to 88.5
O=c1n(CCCF)nnn1-c1cc(Oc2ncccn2)c(Cl)cc1F | 111 to 113
O=C(O)CCCCOc1ccc(N2CCN(c3ccncc3)CC2)cc1 | 237 to 241
CC(C)CC(CS)C(=O)N[C@@H](C)C(=O)N[C@@H](CCCNC(=N)N)C(=O)O (stereo not given in full) | 140 to 150
CCCn1c(=O)[nH]c2ccc(C(=O)c3nc(Br)c4ccccn34)cc2c1=O | 322
CC(=NOCCOc1ccc(CC2SC(=O)NC2=O)cc1)c1ccc2ccccc2n1 (stereo not given) | 162 to 163
COc1ccc(N2CCN(Cc3n[nH]c4c3Cc3ccccc3-4)CC2)cc1 | 176 to 178
COc1ccc(-n2c(=O)[nH]c3c(-c4ccc(C(F)(F)F)cc4F)ncnc32)cc1 | 296 to 297
COc1ccc(Cn2cc(C(=O)NCCN(C)C)c3nc4c(C)cccc4cc3c2=O)cc1OC | 213 to 214
OCCOc1ccc(Cn2ccnc2)cc1 | 81 to 82
CC(=Cc1cccc([N+](=O)[O-])c1)C(=O)Oc1ccc(Cl)cc1 | 102
CNC(=O)[C@@H](C[C@H](O)[C@H](CC1CCCCC1)NC(=O)[C@H](Cc1cscn1)NC(=O)[C@@H](CC(=O)N1CCOCC1)Cc1ccccc1)C(C)C | 83 to 86
CC(=O)CCN1CCC(=C2c3ccccc3CCc3ccccc32)CC1 | 113 to 114
CCC1C(C)=NN=C(c2ccc(OC)cc2)c2cc(OC)c(OC)cc21 (stereo not given) | 157 to 159
NS(=O)(=O)c1cc(C(=O)O)cc([N+](=O)[O-])c1Nc1ccccc1 | 261 to 262

Structure (SMILES) | melting point [°C]
Cc1cccc(-c2nc(-c3ccc(S(C)(=O)=O)cc3)sc2-c2ccnc(C)c2)c1 | 134 to 138
FC(F)(F)c1ccnc(Oc2ccc(CCOc3ncnc4nccnc34)cc2)c1 | 172 to 173
COc1ccc(C(=O)c2c(Cl)cccc2Cl)c(C)c1 | 89
CN(C)c1c(S(=O)C(F)(F)F)c(C#N)nn1-c1c(Cl)cc(C(F)(F)F)cc1Cl (stereo not given) | 154 to 161
CC1(C)Oc2ccsc2C(N2CCCC2=O)C1OC(=O)c1ccccc1 (stereo not given) | 130 to 132
CCCc1c(OCCCCCCc2ccc(CCCCC(=O)O)c(CCC(=O)O)c2)ccc2c1OCCC2=O | 108 to 109
CC1(C)CCC(C)(C)c2cc(-c3cc(-c4ccc(C(=O)O)cc4)ccc3-c3cccc(O)c3)ccc21 | < 70
CCOC(=O)Cc1ccnc2c(NC(=O)c3c(Cl)cccc3Cl)cccc12 | 150 to 152
COC(=O)C(/C(=C\c1ccccc1)C(N)=O)=C(\C)c1cc(OC)c(OC)c(OC)c1 | 118 to 120
Cc1cc(C)c2c(-c3cccc(Cl)c3)cc(=O)n(C)c2n1 | 161 to 162
CCCCCCCCCN=C=O | 104 to 105
CCOC(=O)CCCCn1c(=O)[nH]c2ccc(OCOCCOC)cc2c1=O | 105 to 107
CCOC(=O)Cc1nn(C(c2ccccn2)c2ncno2)c(=O)c2ccccc12 (stereo not given) | 118 to 128
CCCc1nc2cc3c(cc2[nH]1)NC(=O)C3C (stereo not given) | 235 to 238
CNc1nc(-c2ccc(SC)cc2)nc(SC)c1C(=O)Nc1ccc(C)cc1 | 228 to 230
CCNC(C)CN1CCc2c(c(=O)oc3cc(OC)ccc23)C1 (stereo not given) | 97 to 100
CC(C)C1(C)N=C(c2nc3occ(Cl)c3cc2C(=O)O)NC1=O (stereo not given) | 239 to 240
Cc1nc2c(N)nc3c(c2n1CC(C)(C)O)CCCC3 | 290 to 292
COc1cc(C(=O)C(=O)O)cc(OC)c1OCCOc1ccc2ccccc2c1 | 114 to 116
CCOc1ccc(C2=NNC(=O)[C@H]3CC=CC[C@@H]23)cc1OCC (relative stereo) | 145 to 147
COc1ccc([N+](=O)[O-])c(C=CN2CCCC2)c1Cl | 89 to 92
CC1=C(N2CC2)C(=O)c2c([nH]c(C)c2C)C1=O | 251 to 253
